± gives the expanded uncertainty stated by the source.
Experiments:
[1] = molar heat capacity at constant pressure; xn = mol fraction of the nth substance listed; conditions: 101 kPa, Liquid, DSC
[2] = xn = mol fraction of the nth substance listed; conditions: 101 kPa, Liquid; for viscosity: Falling or rolling sphere viscometry; for speed of sound: Sing-around technique in a fixed-path interferometer; for mass density: Vibrating tube method

CC12CCC(CC1)C(C)(C)O2 [1,3,3-trimethyl-2-oxabicyclo[2.2.2]octane] + CCCCCCCC
Conditions | mass density, [2] [kg/m3] | molar heat capacity at constant pressure, [1] [J/K/mol] | speed of sound, [2] [m/s] | viscosity, [2] [mPa·s]
278.15 K, x1 = 0.1046 | 738.47 ± 0.17 | 246.2 ± 9.5 | 1263.8 ± 1.3 | 0.77 ± 0.04
278.15 K, x1 = 0.199 | 759.76 ± 0.17 | 246.45 ± 9.5 | 1270.8 ± 1.3 | 0.87 ± 0.04
278.15 K, x1 = 0.2987 | 782.16 ± 0.17 | 246.89 ± 9.6 | 1279.1 ± 1.3 | 1 ± 0.04
278.15 K, x1 = 0.4008 | 805.03 ± 0.18 | 247.59 ± 9.6 | 1288.5 ± 1.4 | 1.17 ± 0.04
278.15 K, x1 = 0.4955 | 826.13 ± 0.18 | 248.46 ± 9.6 | 1297.8 ± 1.4 | 1.36 ± 0.04
278.15 K, x1 = 0.5939 | 847.98 ± 0.19 | 249.62 ± 9.7 | 1308.4 ± 1.4 | 1.62 ± 0.04
278.15 K, x1 = 0.6971 | 870.82 ± 0.19 | 250.95 ± 9.7 | 1320.1 ± 1.4 | 1.99 ± 0.04
278.15 K, x1 = 0.7985 | 893.16 ± 0.2 | 252.64 ± 9.8 | 1332.5 ± 1.5 | 2.49 ± 0.05
278.15 K, x1 = 0.8939 | 914.06 ± 0.22 | 254.3 ± 9.8 | 1344.9 ± 1.5 | 3.14 ± 0.05
278.15 K, x1 = 1 | 937.25 ± 0.23 | 256.14 ± 9.9 | 1359.6 ± 1.6 | 4.21 ± 0.05
298.15 K, x1 = 0.1046 | 722.35 ± 0.18 | 254.53 ± 9.9 | 1180.9 ± 1.3 | 0.6 ± 0.04
298.15 K, x1 = 0.199 | 743.56 ± 0.18 | 255.32 ± 9.9 | 1188.5 ± 1.3 | 0.66 ± 0.04
298.15 K, x1 = 0.2987 | 765.86 ± 0.18 | 256.22 ± 9.9 | 1197.5 ± 1.3 | 0.75 ± 0.04
298.15 K, x1 = 0.4008 | 788.62 ± 0.18 | 257.36 ± 10 | 1207.3 ± 1.4 | 0.86 ± 0.04
298.15 K, x1 = 0.4955 | 809.62 ± 0.18 | 258.59 ± 10 | 1216.9 ± 1.4 | 0.98 ± 0.04
298.15 K, x1 = 0.5939 | 831.35 ± 0.19 | 260.07 ± 10 | 1227.7 ± 1.4 | 1.14 ± 0.04
298.15 K, x1 = 0.6971 | 854.05 ± 0.2 | 261.75 ± 10 | 1239.8 ± 1.4 | 1.37 ± 0.04
298.15 K, x1 = 0.7985 | 876.24 ± 0.21 | 263.66 ± 10 | 1252.4 ± 1.5 | 1.65 ± 0.04
298.15 K, x1 = 0.8939 | 897.03 ± 0.22 | 265.57 ± 10 | 1264.9 ± 1.5 | 2.02 ± 0.04
298.15 K, x1 = 1 | 920.04 ± 0.23 | 267.69 ± 10 | 1278.4 ± 1.5 | 2.6 ± 0.05
318.15 K, x1 = 0.1046 | 705.93 ± 0.18 | 263.19 ± 10 | 1099.7 ± 1.3 | 0.48 ± 0.04
318.15 K, x1 = 0.199 | 727.08 ± 0.18 | 264.31 ± 10 | 1108.1 ± 1.3 | 0.53 ± 0.04
318.15 K, x1 = 0.2987 | 749.32 ± 0.18 | 265.53 ± 10 | 1117.9 ± 1.3 | 0.58 ± 0.04
318.15 K, x1 = 0.4008 | 772.01 ± 0.18 | 267 ± 10 | 1128.3 ± 1.3 | 0.66 ± 0.04
318.15 K, x1 = 0.4955 | 792.93 ± 0.19 | 268.51 ± 10 | 1138.3 ± 1.4 | 0.74 ± 0.04
318.15 K, x1 = 0.5939 | 814.56 ± 0.19 | 270.26 ± 10 | 1149.5 ± 1.4 | 0.85 ± 0.04
318.15 K, x1 = 0.6971 | 837.17 ± 0.2 | 272.14 ± 11 | 1162.3 ± 1.4 | 1 ± 0.04
318.15 K, x1 = 0.7985 | 859.26 ± 0.21 | 274.24 ± 11 | 1175.6 ± 1.5 | 1.18 ± 0.04
318.15 K, x1 = 0.8939 | 879.92 ± 0.22 | 276.39 ± 11 | 1188.3 ± 1.5 | 1.4 ± 0.04
318.15 K, x1 = 1 | 902.84 ± 0.23 | 278.65 ± 11 | 1201 ± 1.5 | 1.73 ± 0.04
338.15 K, x1 = 0.1046 | 689.16 ± 0.19 | 272.35 ± 11 | 1020.2 ± 1.2 | 0.41 ± 0.04
338.15 K, x1 = 0.199 | 710.27 ± 0.19 | 273.81 ± 11 | 1029.6 ± 1.3 | 0.44 ± 0.04
338.15 K, x1 = 0.2987 | 732.46 ± 0.19 | 275.37 ± 11 | 1040.3 ± 1.3 | 0.48 ± 0.04
338.15 K, x1 = 0.4008 | 755.1 ± 0.19 | 277.18 ± 11 | 1051.6 ± 1.3 | 0.54 ± 0.04
338.15 K, x1 = 0.4955 | 775.96 ± 0.19 | 278.93 ± 11 | 1062.3 ± 1.4 | 0.6 ± 0.04
338.15 K, x1 = 0.5939 | 797.55 ± 0.19 | 280.96 ± 11 | 1073.8 ± 1.4 | 0.68 ± 0.04
338.15 K, x1 = 0.6971 | 820.1 ± 0.2 | 283.13 ± 11 | 1087.4 ± 1.4 | 0.78 ± 0.04
338.15 K, x1 = 0.7985 | 842.12 ± 0.21 | 285.45 ± 11 | 1101.4 ± 1.4 | 0.9 ± 0.04
338.15 K, x1 = 0.8939 | 862.72 ± 0.22 | 287.81 ± 11 | 1114.5 ± 1.5 | 1.05 ± 0.04
338.15 K, x1 = 1 | 885.57 ± 0.23 | 290.33 ± 11 | 1126.7 ± 1.5 | 1.27 ± 0.04

Reference: the NIST ThermoML archive (doi:10.1016/j.fluid.2016.08.035)
